In patent US7601745B2, “Heterocyclic NF-kB inhibitors” (4SC AG, priority 2004, dated 2009):

What follows are molecules tested on A549-NF-κB-SEAP reporter cells (assay: Inhibition of NF-κB-induced inflammation ([…] NINA Instant Assay, SEAP reporter)). Conditions: NF-κB inflammation assay.
Format: cell-based
Description: For the determination of anti-inflammatory activity of the compounds the […]® NINA Instant Assay from Cell Culture Service GmBH was used. This assay is based on recombinant A549-NF-κB-SEAP reporter cells preseeded in 96-well flat bottom plates. As the transfected reportergen for SEAP (secreted embryonic alkaline phosphatase) is under transcriptional control of a NF-κB-responsive element, the expression of this reporter is activated upon stimulation with TNF-α. SEAP secretion into the culture supernatant can be detected by the chemiluminescent substrate CSPD®. Test compounds that inhibit the NF-κB activation show reduced SEAP activity and reduced luminescent readout.
Following 18 h of reactivation at 37° C., 5% CO2 and 90% relative humidity, the cells were incubated with 0.01 up to 100 μM of test compound for 4.5 h before stimulation with 2 ng/ml TNF-α. After stimulation with TNF-α for 22 h endogenous phosphatases were inactivated and CSPD® substrate was supplied for 40 min. SEAP activity then was quantified by measuring luminescence as relative light units (RLU) using a Tecan Ultra reader. Each data point was recorded in quadruplicates and EC50 values were calculated via fitting function and the Microsoft Excel Solver.

Compound	Biological activity (inhibition in the NF-κB inflammation assay)
N=C(NC(=O)c1csc(N2CCN(Cc3ccccc3)CC2)n1)Nc1nc2ccccc2[nH]1 [compound 30]	+++ (“+++” stands for 90-100% inhibition)
N=C(NC(=O)c1csc(N2CCOCC2)n1)Nc1nc2ccccc2[nH]1 [compound 91]	+ (“+” stands for 50-80% inhibition)
O=C(Nc1nc2ccccc2[nH]1)c1csc(NC(=O)c2ccccc2OC(F)(F)F)n1 [compound 31]	+++ (“+++” stands for 90-100% inhibition)
N=C(NC(=O)c1csc(NC(=O)c2ccc(C(F)(F)F)cc2)n1)Nc1nc2ccccc2[nH]1 [compound 51]	+++ (“+++” stands for 90-100% inhibition)

Same assay, conditions: compounds of formula (I); TNF-α stimulated reporter cells; test concentration not given

Compound	Biological activity (NF-κB inflammation assay, inhibition)
O=C(c1csc(C2CCN(C(=O)c3ccccc3OC(F)(F)F)CC2)n1)N1CCN(c2cccc(C(F)(F)F)c2)CC1 [compound 223]	+++ (“+++” stands for 90-100% inhibition)
COc1ccc(Cl)cc1S(=O)(=O)N1CCC(c2nc(C(=O)N3CCN(c4cccc(C(F)(F)F)c4)CC3)cs2)CC1 [compound 202]	++ (“++” means 80-90%)
O=C(c1csc(C2CCN(S(=O)(=O)c3c(F)c(F)c(F)c(F)c3F)CC2)n1)N1CCN(c2cccc(C(F)(F)F)c2)CC1 [compound 193]	+ (“+” stands for 50-80% inhibition)
O=C(c1csc(C2CCN(C(=O)C3COc4ccccc4O3)CC2)n1)N1CCN(c2cccc(C(F)(F)F)c2)CC1 (stereo not shown) [compound 217]	+++ (“+++” stands for 90-100% inhibition)
O=C(c1csc(C2CCN(S(=O)(=O)c3ccccc3)CC2)n1)N1CCN(c2cccc(C(F)(F)F)c2)CC1 [compound 208]	+ (“+” stands for 50-80% inhibition)
O=C(c1csc(C2CCN(Cc3ccncc3)CC2)n1)N1CCN(c2cccc(C(F)(F)F)c2)CC1 [compound 107]	+ (“+” stands for 50-80% inhibition)
O=C(c1cccnc1)N1CCC(c2nc(C(=O)N3CCN(c4cccc(C(F)(F)F)c4)CC3)cs2)CC1 [compound 222]	+ (“+” stands for 50-80% inhibition)
CN(C(=O)c1csc(C2CCN(C(=O)c3ccccc3OC(F)(F)F)CC2)n1)C(CN1CCOCC1)c1ccccc1 (stereo not shown) [compound 147]	+ (“+” stands for 50-80% inhibition)
O=C(c1csc(C2CCN(S(=O)(=O)c3cc(C(F)(F)F)cc(C(F)(F)F)c3)CC2)n1)N1CCN(c2cccc(C(F)(F)F)c2)CC1 [compound 201]	++ (“++” means 80-90%)
O=C(c1csc(C2CCN(Cc3ccc(F)cc3Cl)CC2)n1)N1CCN(c2cccc(C(F)(F)F)c2)CC1 [compound 171]	+ (“+” stands for 50-80% inhibition)
O=C(c1csc(C2CCN(Cc3ccc(-c4ccccc4)cc3)CC2)n1)N1CCN(c2cccc(C(F)(F)F)c2)CC1 [compound 167]	+ (“+” stands for 50-80% inhibition)
Cc1noc(C)c1C(=O)N1CCC(c2nc(C(=O)N3CCN(c4cccc(C(F)(F)F)c4)CC3)cs2)CC1 [compound 219]	+ (“+” stands for 50-80% inhibition)
COc1nc(OC)nc(N2CCN(C(=O)c3csc(C4CCN(Cc5ccc(Br)cc5)CC4)n3)CC2)n1 [compound 121]	+ (“+” stands for 50-80% inhibition)
O=C(c1csc(C2CCN(S(=O)(=O)c3ccc(OC(F)(F)F)cc3)CC2)n1)N1CCN(c2cccc(C(F)(F)F)c2)CC1 [compound 205]	+ (“+” stands for 50-80% inhibition)
O=C(c1ccc(C(F)(F)F)c(F)c1)N1CCC(c2nc(C(=O)N3CCN(c4cccc(C(F)(F)F)c4)CC3)cs2)CC1 [compound 215]	+++ (“+++” stands for 90-100% inhibition)
O=C(c1csc(C2CCN(c3ccccn3)CC2)n1)N1CCN(c2cccc(C(F)(F)F)c2)CC1 [compound 123]	++ (“++” means 80-90%)
O=C(O)c1cc(Cl)c(Cl)cc1C(=O)N1CCC(c2nc(C(=O)N3CCN(c4cccc(C(F)(F)F)c4)CC3)cs2)CC1 [compound 187]	+ (“+” stands for 50-80% inhibition)
COc1nc(OC)nc(N2CCN(C(=O)c3csc(C4CCN(C(=O)c5ccccc5OC(F)(F)F)CC4)n3)CC2)n1 [compound 127]	+ (“+” stands for 50-80% inhibition)
CC(c1cc2ccccc2[nH]1)N(C)C(=O)c1csc(C2CCN(C(=O)c3ccccc3OC(F)(F)F)CC2)n1 (stereo not shown) [compound 145]	+ (“+” stands for 50-80% inhibition)
CCCCN1CCN(C(=O)c2csc(C3CCN(C(=O)Cc4ccc(F)cc4)CC3)n2)CC1 [compound 231]	+ (“+” stands for 50-80% inhibition)
O=C(c1csc(C2CCN(C(=O)c3ccccc3OC(F)(F)F)CC2)n1)N(CCc1ccccc1)Cc1ccccc1 [compound 149]	+ (“+” stands for 50-80% inhibition)

Same assay, conditions: compounds of formula (II); TNF-α stimulated reporter cells; test concentration not given

Compound	Biological activity (NF-κB inflammation assay, inhibition)
O=C(CCC1CCCC1)Nc1nc(C(=O)N2CCN(c3cccc(C(F)(F)F)c3)CC2)cs1 [compound 33]	+++ (“+++” stands for 90-100% inhibition)
O=C(c1csc(N2CCN(c3ccc(F)cc3)CC2)n1)N1CCN(c2cccc(C(F)(F)F)c2)CC1 [compound 69]	++ (“++” means 80-90%)
O=C(Nc1nc(C(=O)N2CCN(C(c3ccccc3)c3ccccc3)CC2)cs1)c1ccccc1OC(F)(F)F [compound 58]	++ (“++” means 80-90%)
O=C(c1csc(N2CCN(C(=O)c3ccccc3OC(F)(F)F)CC2)n1)N1CCN(c2cccc(C(F)(F)F)c2)CC1 [compound 39]	+++ (“+++” stands for 90-100% inhibition)
O=C(c1csc(N2CCN(c3cccc(C(F)(F)F)c3)CC2)n1)N1CCN(c2cccc(C(F)(F)F)c2)CC1 [compound 67]	+ (“+” stands for 50-80% inhibition)
O=C(NCC1CCN(c2nc(C(=O)N3CCN(c4cccc(C(F)(F)F)c4)CC3)cs2)CC1)c1ccc(C(F)(F)F)c(F)c1 [compound 99]	+ (“+” stands for 50-80% inhibition)
O=C(c1csc(N2CCN(c3ccccc3)CC2)n1)N1CCN(c2cccc(C(F)(F)F)c2)CC1 [compound 68]	+ (“+” stands for 50-80% inhibition)
O=C(NCC1CCN(c2nc(C(=O)N3CCN(c4cccc(C(F)(F)F)c4)CC3)cs2)CC1)c1ccccc1OC(F)(F)F [compound 101]	+ (“+” stands for 50-80% inhibition)

Same assay, conditions: compounds of formula (Ia); TNF-α stimulated reporter cells; test concentration not given

Compound	Biological activity (NF-κB inflammation assay, inhibition)
O=C(Nc1ccc2c(c1)OCCO2)N1CCC(c2nc(C(=O)N3CCN(c4cccc(C(F)(F)F)c4)CC3)cs2)CC1 [compound 75]	++ (“++” means 80-90%)
O=C(Nc1cc(F)cc2c1OCCO2)N1CCC(c2nc(C(=O)N3CCN(c4cccc(C(F)(F)F)c4)CC3)cs2)CC1 [compound 74]	++ (“++” means 80-90%)

Same assay, conditions: compounds of formula (Ib); TNF-α stimulated reporter cells; test concentration not given

Compound	Biological activity (NF-κB inflammation assay, inhibition)
Cc1sc(C2CCN(C(=O)c3ccccc3OC(F)(F)F)CC2)nc1CC(=O)N1CCN(c2cccc(C(F)(F)F)c2)CC1 [compound 103]	++ (“++” means 80-90%)

Same assay, conditions: compounds of formula (Ic); TNF-α stimulated reporter cells; test concentration not given

Compound	Biological activity (NF-κB inflammation assay, inhibition)
COc1cc2c(cc1OC)CN(C(=O)c1csc(C3CCN(C(=O)Cc4ccc(F)cc4)CC3)n1)C(C)C2 (stereo not shown) [compound 232]	+ (“+” stands for 50-80% inhibition)
